Results on 45 compounds are retold here after patent US10941132B2, “Pyrazole derivatives” (HUA MEDICINE (SHANGHAI) Ltd., priority 2016, dated 2021).

Structures are written as SMILES. pIC50: −log10 of the molar value.

One assay deals with T1, recombinant rat mGluR5 (Rattus norvegicus, UniProt P31424).
T1 construct: expressed in transfected cells
T1 sequence (P31424 21-1203): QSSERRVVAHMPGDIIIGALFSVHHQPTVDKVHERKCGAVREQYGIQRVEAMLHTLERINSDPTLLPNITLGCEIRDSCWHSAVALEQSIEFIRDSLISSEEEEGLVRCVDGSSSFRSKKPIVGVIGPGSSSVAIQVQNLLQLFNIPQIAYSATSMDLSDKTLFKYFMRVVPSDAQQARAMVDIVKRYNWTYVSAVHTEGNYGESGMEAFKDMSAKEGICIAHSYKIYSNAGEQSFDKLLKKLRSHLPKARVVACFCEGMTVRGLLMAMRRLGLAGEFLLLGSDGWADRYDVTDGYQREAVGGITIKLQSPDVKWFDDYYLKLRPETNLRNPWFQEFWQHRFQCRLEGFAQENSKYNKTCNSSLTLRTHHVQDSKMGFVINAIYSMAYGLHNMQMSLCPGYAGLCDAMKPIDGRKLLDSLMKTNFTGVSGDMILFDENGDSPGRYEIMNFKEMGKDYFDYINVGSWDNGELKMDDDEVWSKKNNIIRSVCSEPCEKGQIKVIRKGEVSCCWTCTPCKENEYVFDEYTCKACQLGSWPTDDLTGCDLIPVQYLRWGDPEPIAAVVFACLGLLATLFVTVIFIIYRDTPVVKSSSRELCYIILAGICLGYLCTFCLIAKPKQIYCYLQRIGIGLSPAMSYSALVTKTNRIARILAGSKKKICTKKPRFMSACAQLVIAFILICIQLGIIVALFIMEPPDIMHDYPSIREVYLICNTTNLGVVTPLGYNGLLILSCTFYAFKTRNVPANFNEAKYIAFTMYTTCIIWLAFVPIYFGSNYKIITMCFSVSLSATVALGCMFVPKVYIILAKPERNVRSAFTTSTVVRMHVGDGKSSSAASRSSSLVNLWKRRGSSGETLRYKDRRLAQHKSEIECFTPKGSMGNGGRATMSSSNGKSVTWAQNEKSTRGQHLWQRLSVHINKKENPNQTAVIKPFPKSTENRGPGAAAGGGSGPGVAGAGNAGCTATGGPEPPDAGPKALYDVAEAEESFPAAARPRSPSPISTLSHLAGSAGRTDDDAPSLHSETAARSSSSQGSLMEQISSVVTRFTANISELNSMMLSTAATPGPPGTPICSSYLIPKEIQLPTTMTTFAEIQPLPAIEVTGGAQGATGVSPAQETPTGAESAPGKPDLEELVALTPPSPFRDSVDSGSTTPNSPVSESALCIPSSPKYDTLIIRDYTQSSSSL
Description: Functional calcium flux assay (FLIPR), antagonist evaluation against glutamate-evoked [Ca2+]i increase. The following applies: Table 1; HEK293 cells stably expressing recombinant rat mGluR5; 15 min incubation of test compound, then submaximal glutamate; read-out: IC50 value (FLIPR assay). The class given is cell-based. As to the method: Functional Calcium Clux Assay Methodology
For functional assays, HEK293 cells stably expressing recombinant rat mGluR5 were seeded in 384-well plates and dye loaded using Fluo-8. Cells were then washed to remove the un-incorporated dye. Antagonist evaluation was performed following a 15 min incubation of the test compound followed by the addition of submaximal concentration of glutamate. Intracellular calcium ([Ca^2+]i) measurements were performed using a fluorometric imaging plate reader (FLIPR, Molecular Devices). The glutamate-evoked increase in [Ca^2′]i in the presence of the test compounds was compared to the response to glutamate alone (the positive control). Antagonist inhibition curves were fitted with a 4-parameter logistic equation giving IC50 values, and Hill coefficients using an iterative nonlinear curve fitting algorithm.
The tables below provide IC50 data in this assay. In the activity column, A=IC50>1,000 and ≤5,000 nM; B=IC50>500 and ≤1,000 nM and C=IC50≤500 nM.
As a reminder, the pIC50 is the negative decadic logarithm of the IC50, by convention in mol/L. Regarding `Fc1ccc(-n2cc(C#Cc3ccccn3)c(OC(F)F)n2)nc1` [Compound 68, 2-(3-(difluoromethoxy)-4-(pyridin-2-ylethynyl)-1H-pyrazol-1-yl)-5-fluoropyridine], the pIC50 is at least 6.30. Still for that read-out and setting: then `N#Cc1cc(F)cc(-n2cc(C#Cc3ccccc3)cn2)c1` [Compound 74, 3-fluoro-5-(4-(phenylethynyl)-H-pyrazol-1-yl)benzonitrile], with 5.30 to 6.00; and `N#Cc1cc(F)cc(-n2cc(C#Cc3ccccn3)cn2)c1` [Compound 75, 3-fluoro-5-(4-(pyridin-2-ylethynyl)-1H-pyrazol-1-yl)benzonitrile], with at least 6.30; and `N#Cc1cc(F)cc(-n2cc(C#Cc3cccnc3)cn2)c1` [Compound 76, 3-fluoro-5-(4-(pyridin-3-ylethynyl)-1H-pyrazol-1-yl)benzonitrile], with 5.30 to 6.00. With `N#Cc1cc(F)cc(-n2cc(C#Cc3cccc(Cl)c3)cn2)c1` [Compound 77, 3-fluoro-5-(4-(3-chloro-phenylethynyl)-1H-pyrazol-1-yl) benzonitrile], the pIC50 is 6.00 to 6.30. In the case of `N#Cc1cc(F)cc(-n2cc(C#Cc3ncccn3)cn2)c1` [Compound 78, 3-fluoro-5-(4-(pyrimidin-2-ylethynyl)-1H-pyrazol-1-yl) benzonitrile], the negative logarithm of the IC50 (pIC50) is at least 6.30. With `N#Cc1cc(F)cc(-n2cc(C#Cc3ccncc3)cn2)c1` [Compound 79, 3-fluoro-5-(4-(pyridin-4-ylethynyl)-1H-pyrazol-1-yl)benzonitrile], the negative logarithm of the IC50 (pIC50) was at least 6.30. As to `N#Cc1cc(F)cc(-n2cc(C#Cc3cnccn3)cn2)c1` [Compound 80, 3-fluoro-5-(4-(pyrazin-2-ylethynyl)-1H-pyrazol-1-yl)benzonitrile], the pIC50 was 5.30 to 6.00. Regarding `Fc1ccc(-n2cc(C#Cc3ccccc3)cn2)cc1` [Compound 81, 1-(4-fluorophenyl)-4-(phenylethynyl)-1H-pyrazole], the negative-log IC50 (pIC50) was at least 6.30. On the same count and under the same terms, then `Fc1ccc(-n2cc(C#Cc3ccccn3)cn2)cc1` [Compound 82, 2-((1-(4-fluorophenyl)-1H-pyrazol-4-yl)ethynyl)pyridine], with at least 6.30; and `Fc1ccc(-n2cc(C#Cc3cccnc3)cn2)cc1` [Compound 83, 3-((1-(4-fluorophenyl)-1H-pyrazol-4-yl)ethynyl)pyridine], with at least 6.30.

Turning to `Fc1ccc(-n2cc(C#Cc3cccc(Cl)c3)cn2)cc1` [Compound 84, 4-((3-chlorophenyl)ethynyl)-1-(4-fluorophenyl)-1H-pyrazole], the pIC50 is at least 6.30. The same measure, in the same setting: the same measure for `Fc1ccc(-n2cc(C#Cc3ccnc(Cl)c3)cn2)cc1` [Compound 85, 2-chloro-4-((1-(4-fluorophenyl)-1H-pyrazol-4-yl)ethynyl)pyridine]: at least 6.30; for `Fc1ccc(-n2cc(C#Cc3ncccn3)cn2)cc1` [Compound 86, 2-((1-(4-fluorophenyl)-H-pyrazol-4-yl)ethynyl)pyrimidine]: at least 6.30. `Fc1ccc(-n2cc(C#Cc3ccncc3)cn2)cc1` [Compound 87]: the negative logarithm of the IC50 (pIC50) is at least 6.30. On the same count and under the same terms, then `Fc1ccc(-n2cc(C#Cc3cnccn3)cn2)cc1` [Compound 88, 2-((1-(4-fluorophenyl)-1H-pyrazol-4-yl)ethynyl)pyrazine], with at least 6.30. The same measure, in the same setting: the same measure for `FC(F)(F)Oc1ccc(-n2cc(C#Cc3ccccc3)cn2)cc1` [Compound 89, 4-(phenylethynyl)-1-(4-(trifluoromethoxy)phenyl)-1H-pyrazole]: 5.30 to 6.00; for `FC(F)(F)Oc1ccc(-n2cc(C#Cc3ccccn3)cn2)cc1` [Compound 90, 2-((1-(4-(trifluoromethoxy)phenyl)-1H-pyrazol-4-yl)ethynyl)pyridine]: at least 6.30. Same read-out and setting: then `FC(F)(F)Oc1ccc(-n2cc(C#Cc3cccnc3)cn2)cc1` [Compound 91, 3-((1-(4-(trifluoromethoxy)phenyl)-H-pyrazol-4-yl)ethynyl)pyridine], with 5.30 to 6.00; and `FC(F)(F)Oc1ccc(-n2cc(C#Cc3cccc(Cl)c3)cn2)cc1` [Compound 92, 4-((3-chlorophenyl)ethynyl)-1-(4-(trifluoromethoxy)phenyl)-1H-pyrazole], with at least 6.30; and `FC(F)(F)Oc1ccc(-n2cc(C#Cc3ncccn3)cn2)cc1` [Compound 93], with at least 6.30. `FC(F)(F)Oc1ccc(-n2cc(C#Cc3ccncc3)cn2)cc1` [Compound 94, 4-((1-(4-(trifluoromethoxy)phenyl)-1H-pyrazol-4-yl)ethynyl)pyridine]: the negative-log IC50 (pIC50) is 6.00 to 6.30.

Still in this assay, the particulars now being: Table 2; HEK293 cells stably expressing recombinant rat mGluR5; 15 min incubation of test compound, then submaximal glutamate; read-out: IC50 (FLIPR assay).
For the compound `Fc1ccc(-n2ccc(C#Cc3ccccn3)n2)nc1` [Compound 67, 5-fluoro-2-(3-(pyridin-2-ylethynyl)-1H-pyrazol-1-yl)pyridine], the pIC50 is at least 6.30. As to `Fc1ccc(-n2cc(Cl)c(C#Cc3ccccn3)n2)nc1` [Compound 69, 2-(4-chloro-3-(pyridin-2-ylethynyl)-1H-pyrazol-1-yl)-5-fluoropyridine], the pIC50 was 6.00 to 6.30. On the same count and under the same terms, the same measure for `Fc1cncc(-n2ccc(C#Cc3ccccn3)n2)c1` [Compound 70, 3-fluoro-5-(3-(pyridin-2-ylethnyl)-1H-pyrazol-1-yl)pyridine]: at least 6.30; for `C(#Cc1ccn(-c2ccccn2)n1)c1ccccn1` [Compound 71, 2-((1-(pyridin-2-yl)-1H-pyrazol-3-yl)ethynyl)pyridine]: at least 6.30; for `Cc1cn(-c2ccc(F)cn2)nc1C#Cc1ccccn1` [Compound 72, 5-fluoro-2-(4-methyl-3-(pyridin-2-ylethynyl)-1H-pyrazol-1-yl) pyridine]: 6.00 to 6.30.

In the case of `Cc1cc(C#Cc2ccccn2)nn1-c1ccc(F)cn1` [Compound 73, 5-fluoro-2-(5-methyl-3-(pyridin-2-ylethynyl)-1H-pyrazol-1-yl)], the pIC50 was at least 6.30. Turning to `Cc1cc(C#Cc2ccccc2)nn1-c1cc(F)cc(C#N)c1` [Compound 96, 3-fluoro-5-(5-methyl-3-(phenylethynyl)-1H-pyrazol-1-yl) benzonitrile], the pIC50 was at least 6.30. For the compound `Cc1cc(C#Cc2ccccn2)nn1-c1cc(F)cc(C#N)c1` [Compound 97, 3-fluoro-5-(5-methyl-3-(pyridin-2-ylethynyl)-1H-pyrazol-1-yl) benzonitrile], the pIC50 was at least 6.30. On the same count and under the same terms, then `Cc1cc(C#Cc2cccnc2)nn1-c1cc(F)cc(C#N)c1` [Compound 98, 3-fluoro-5-(5-methyl-3-(pyridin-3-ylethynyl)-1H-pyrazol-1-yl) benzonitrile], with at least 6.30; and `Cc1cc(C#Cc2cccc(Cl)c2)nn1-c1cc(F)cc(C#N)c1` [Compound 99, 3-(3-((3-chlorophenyl)ethynyl)-5-methyl-1H-pyrazol-1-yl)-5-fluorobenzonitrile], with at least 6.30; and `Cc1cc(C#Cc2ccnc(Cl)c2)nn1-c1cc(F)cc(C#N)c1` [Compound 100, 3-(3-((2-chloropyridin-4-yl)ethynyl)-5-methyl-1H-pyrazol-1-yl)-5-fluorobenzonitrile], with at least 6.30. On the same count and under the same terms, then `Cc1cc(C#Cc2ncccn2)nn1-c1cc(F)cc(C#N)c1` [Compound 101, 3-fluoro-5-(5-methyl-3-(pyrimidin-2-ylethynyl)-H-pyrazol-1-yl) Benzonitrile], with at least 6.30; and `Cc1cc(C#Cc2ccncc2)nn1-c1cc(F)cc(C#N)c1` [Compound 102, 3-fluoro-5-(5-methyl-3-(pyridin-4-ylethynyl)-1H-pyrazol-1-yl) benzonitrile], with at least 6.30. Take `Cc1cc(C#Cc2cnccn2)nn1-c1cc(F)cc(C#N)c1` [Compound 103, 3-fluoro-5-(5-methyl-3-(pyrazin-2-ylethynyl)-1H-pyrazol-1-yl) Benzonitrile]: the pIC50 is at least 6.30. Turning to `N#Cc1cc(F)cc(-n2ccc(C#Cc3ccccc3)n2)c1` [Compound 104], the pIC50 is 5.30 to 6.00. For the compound `N#Cc1cc(F)cc(-n2ccc(C#Cc3ccccn3)n2)c1` [Compound 105, 3-fluoro-5-(3-(pyridin-2-ylethynyl)-1H-pyrazol-1-yl)benzonitrile], the pIC50 was at least 6.30. Still for that read-out and setting: the same measure for `N#Cc1cc(F)cc(-n2ccc(C#Cc3cccnc3)n2)c1` [Compound 106, 3-fluoro-5-(3-(pyridin-3-ylethynyl)-1H-pyrazol-1-yl)benzonitrile]: 5.30 to 6.00. In the case of `N#Cc1cc(F)cc(-n2ccc(C#Cc3cccc(Cl)c3)n2)c1` [Compound 107, 3-(3-((3-chlorophenyl)ethynyl)-1H-pyrazol-1-yl)-5-fluorobenzonitrile], the pIC50 was at least 6.30. Consider `N#Cc1cc(F)cc(-n2ccc(C#Cc3ccnc(Cl)c3)n2)c1` [Compound 108, 3-(3-((2-chloropyridin-4-yl)ethynyl)-1H-pyrazol-1-yl)-5-fluorobenzonitrile], for which the pIC50 was at least 6.30. Same read-out and setting: then `N#Cc1cc(F)cc(-n2ccc(C#Cc3ncccn3)n2)c1` [Compound 109, 3-fluoro-5-(3-(pyrimidin-2-ylethynyl)-1H-pyrazol-1-yl)benzonitrile], with at least 6.30. `N#Cc1cc(F)cc(-n2ccc(C#Cc3ccncc3)n2)c1` [Compound 110, 3-fluoro-5-(3-(pyridin-4-ylethynyl)-H-pyrazol-1-yl)benzonitrile]: the pIC50 was at least 6.30. As to `N#Cc1cc(F)cc(-n2ccc(C#Cc3cnccn3)n2)c1` [Compound 111, 3-fluoro-5-(3-(pyrazin-2-ylethynyl)-1H-pyrazol-1-yl)benzonitrile], the pIC50 was at least 6.30. `Fc1ccc(-n2ccc(C#Cc3ccccn3)n2)cc1` [Compound 112, 2-((1-(4-fluorophenyl)-1H-pyrazol-3-yl)ethynyl)pyridine]: the pIC50 was at least 6.30.
